Measured values published in patent publication US20230203004A1, “RSV INHIBITING 3-SUBSTITUTED QUINOLINE AND CINNOLINE DERIVATIVES” (Janssen Sciences Ireland Unlimited Company, priority 2020, published 2023).
Where two headings read alike, the source gives them in different places.

Experiments:
[1] = test system: rgRSV224 virus; assay: Antiviral activity: rgRSV224 (GFP) replication in HeLa cells; assay type: cell-based, respiratory syncytial virus (RSV); settings: human respiratory syncytial virus, HeLa
Procedure: (§1) Black 384-well clear-bottom microtiter plates (Corning, Amsterdam, The Netherlands) were filled via acoustic drop ejection using the echo liquid handler (Labcyte, Sunnyvale, California). 200 nL of compound stock solutions (100% DMSO) were transferred to the assay plates. 9 serial 4-fold dilutions of compound were made, creating per quadrant the same compound concentration. The assay was initiated by adding 10 µL of culture medium to each well (RPMI medium without phenol red, 10% FBS-heat inactivated, 0.04% gentamycin (50 mg/mL). All addition steps are done by using a multidrop dispenser (Thermo Scientific, Erembodegem, Belgium). Next, rgRSV224 virus (MOI = 1) diluted in culture medium was added to the plates. rgRSV224 virus is an engineered virus that includes an additional GFP gene (Hallak LK, Spillmann D, Collins PL, Peeples ME. Glycosaminoglycan sulfation requirements for respiratory syncytial virus infection; Journal of virology (2000), 74(22), 10508-13) and was in-licensed from the NIH (Bethesda, MD, USA). Finally, 20 µL of a HeLa cell suspension (3,000 cells/well) were plated. Medium, virus- and mock-infected controls were included in each test. The wells contain […] DMSO per volume. Cells were incubated at 37° C. in a 5% CO2 atmosphere. Three days post-virus exposure, viral replication was quantified by measuring GFP expression in the cells by an in house developed MSM laser microscope (Tibotec, Beerse, Belgium). The EC50 was defined as the 50% inhibitory concentration for GFP expression. In parallel, compounds were incubated for three days in a set of white 384-well microtiter plates (Corning) and the cytotoxicity of compounds in HeLa cells was determined by measuring the ATP content of the cells using the ATPlite kit (Perkin Elmer, Zaventem, Belgium) according to the manufacturer’s instructions. The CC50 was defined as the 50% concentration for cytotoxicity.

[2] = Cytotoxicity in HeLa cells (ATP content, ATPlite kit); assay type: cell-based; settings: human
Procedure: as §1

[3] = 72 h, read-out: RSV HELA EC50, HeLa cells, rgRSV224 MOI = 1, GFP expression three days post-virus exposure, averaged data of several repeat experiments
[4] = comparison table 5.3, antiviral RSV assay of Example 5.1

SMILES | EC50 [1, 3] [µM] | CC50 at 3 days ([2]; TOX HELA CC50) [µM] | EC50 [1, 4] [µM] | CC50 at 3 days ([2]; CC50) [µM]
COc1cc(C(=O)NC[C@](O)(c2cc(C(C)(C)O)c(F)c(-c3ccc(F)cc3)n2)C(F)(F)F)cc2cc(C(F)(F)F)cnc12 [compound 326, (-)(Trifluoromethyl)-8-Methoxy-N-(3,3,3-Trifluoro-2-(5-Fluoro-6-(4-Fluorophenyl)-4-(2-Hydroxypropan-2-yl)Pyridin-2-yl)-2-Hydroxypropyl)Quinoline-6-Carboxamide] | 0.026 | 13 |  | 
COc1cc(C(=O)NC[C@](O)(c2cc(C(C)(C)O)c(F)c(-c3ccc(F)cc3)n2)C2CC2)cc2cc(C(F)(F)F)nnc12 [compound 284] | 0.0048 | 16 |  | 
COc1cc(C(=O)NC[C@@](C)(O)c2cc(C(C)(C)O)c(Cl)c(-c3ccc(F)cc3)n2)cc2cc(C)nnc12 [compound 230] | 0.12 | 57 |  | 
COc1cc(C(=O)NC[C@](O)(c2cc(C(C)(C)O)c(F)c(-c3ccc(F)c(F)c3)n2)C2CC2)cc2cc(C)cnc12 [compound 209, (-)-N-{2-Cyclopropyl-2-[6-(3,4-Difluorophenyl)-5-Fluoro-4-(2-Hydroxypropan-2-yl)Pyridin-2-yl]-2-Hydroxyethyl}-8-Methoxy-3-Methylquinoline-6-Carboxamide] | 0.00041 | 25 |  | 
COc1cc(C(=O)NC[C@@](O)(c2cc(C(C)(C)O)c(F)c(-c3ccc(F)cc3)n2)C2(C)CC2)cc2cc(C)nnc12 [compound 299] | 0.093 | 12 |  | 
COc1cc(C(=O)NC[C@](O)(c2cc(C(C)(C)O)c(Cl)c(-c3ccc(F)cc3)n2)C(F)(F)F)cc2cc(C)c(F)nc12 [compound 210, (-)-N-{2-[5-Chloro-6-(4-Fluorophenyl)-4-(2-Hydroxypropan-2-yl)Pyridin-2-yl]-3,3,3-Trifluoro-2-Hydroxypropyl}-2-Fluoro-8-Methoxy-3-Methylquinoline-6-Carboxamide] | 0.0029 | 23 |  | 
COc1cc(C(=O)NC[C@](O)(c2cc(C(C)(C)O)c(F)c(-c3ccc(F)cc3)n2)C(F)(F)F)cc2cc(C)c(F)nc12 [compound 273, (-)Fluoro-8-methoxy-3-methyl-n-(3,3,3-trifluoro(5-fluoro-6-(4-fluorophenyl)-4-(2-hydroxypropanyl)pyridinyl)hydroxypropyl)quinoline-6-carboxamide] | 0.00381 | 13 |  | 
COc1cc(C(=O)NCC(O)(c2cc(C(C)(C)O)c(F)c(-c3ccc(F)cc3)n2)[C@@H]2CC2(F)F)cc2cc(C)nnc12 (stereo in doubt) [compound 320, N-((*S)-2,2-Difluorocyclopropyl)-2-(5-Fluoro-6-(4-Fluorophenyl)-4-Hydroxypropan-2-yl)Pyridin-2-yl)-2-Hydroxyethyl)-8-MZthoxy-3-Methylcinnoline-6-Carboxamide] | 0.001 | 24 |  | 
Cc1cc2cc(C(=O)NCC(O)(c3cc(C(C)(C)O)c(F)c(-c4ccc(F)cc4)n3)C3CC3)cc(OC(F)F)c2nn1 (single isomer, unassigned; (-)) [compound 260, (-)-N-{2-Cyclopropyl-2-[5-Fluoro-6-(4-Fluorophenyl)-4-(2-Hydroxypropan-2-yl)Pyridin-2-yl]-2-Hydroxyethyl}-8-(Difluoromethoxy)-3-Methylcinnoline-6-Carboxamide] | 0.0016 | 19 |  | 
COc1cc(C(=O)NC[C@](O)(c2cc(C(C)(C)O)c(F)c(-c3ccc(C(F)(F)F)cc3)n2)C2CC2)cc2cc(C)cnc12 [compound 207] | 0.00077 | 13 |  | 
COc1cc(C(=O)NC[C@](O)(c2cc(C(C)(C)O)c(F)c(-c3ccc(C(F)(F)F)cc3)n2)C(F)(F)F)cc2cc(C)nnc12 [compound 274, (-)Methoxy-3-Methyl-N-(3,3,3-Trifluoro-2-(5-Fluoro-4-(2-Hydroxypropan-2-yl)-6-(4-(Trifluoromethyl)Phenyl)pyridin-2-yl)-2-Hydroxypropyl)Cinnoline-6-Carboxamide] | 0.00148 | 11 |  | 
[2H]C([2H])([2H])Oc1cc(C(=O)NC[C@](O)(c2cc(C(C)(C)O)c(F)c(-c3ccc(F)cc3)n2)C2CC2)cc2cc(C3CC3)nnc12 [compound 289, (-)Cyclopropyl-N-(2-Cyclopropyl-2-(5-Fluoro-6-(4-Fluorophenyl)-4-(2-Hydroxypropan-2-yl)Pyridin-2-yl)-2-Hydroxyethyl)-8-(Methoxy-d3)Cinnoline-6-Carboxamide] | 0.0018 | 10 |  | 
COc1cc(C(=O)NC[C@](O)(c2cc(C(C)(C)O)c(F)c(-c3ccc(F)cc3)n2)C(F)(F)F)cc2cc(C)cnc12 [compound 322, (-)Methoxy-3-Methyl-N-(3,3,3-Trifluoro-2-(5-Fluoro-6-(4-Fluorophenyl)-4-(2-Hydroxypropan-2-yl)Pyridm-2-yl)-2-Hydroxypropyl)Qumolme-6-Carboxamide] | 0.0045 | 15 |  | 
COc1cc(C(=O)NC[C@](O)(c2cc(C(C)(C)O)c(F)c(-c3ccc(F)c(F)c3)n2)C2CC2)cc2cc(C)c(F)nc12 [compound 218, (-)-N-{2-Cyclopropyl-2-[6-(3,4-Difluorophenyl)-5-Fluoro-4-(2-Hydroxypropan-2-yl)Pyridin-2-yl]-2-Hydroxyethyl}-2-Fluoro-8-Methoxy-3-Methylquinoline-6-Carboxamide] | 0.0012 | 16 |  | 
COc1cc(C(=O)NC[C@](O)(c2cc(C(C)(C)O)c(F)c(-c3ccc(F)cc3)n2)C2C[C@H]2F)cc2cc(C)nnc12 (single isomer, unassigned) [compound 300, N-((*S)(5-Fluoro-6-(4-Fluorophenyl)-4-(2-Hydroxypropanyl)Pyridinyl)((1*S,2*R)Fluorocyclopropyl)Hydroxyethyl)-8-Methoxy-3-Methylcinnoline-6-Carboxamide] | 0.0007 | 27 |  | 
Cc1cnc2c(OC3CC3)cc(C(=O)NC[C@](O)(c3nc(-c4ccc(F)cc4)c(Cl)c(C(C)(C)O)c3F)C(F)(F)F)cc2c1 [compound 221, (-)-N-{2-[5-Chloro-3-Fluoro-6-(4-Fluorophenyl)-4-(2-Hydroxypropan-2-yl)Pyridin-2-yl]-3,3,3-Trifluoro-2-Hydroxypropyl}-8-(Cyclopropyloxy)-3-Methylquinoline-6-Carboxamide] | 0.0093 | 65 |  | 
CC(C)(O)c1cc([C@@](O)(CNC(=O)c2cc(OC3CC3)c3ncccc3c2)C(F)(F)F)nc(-c2ccc(F)cc2)c1F [Compound A, reference compound] |  |  | 0.014 | 37
COc1cc(C(=O)NC[C@](O)(c2cc(C(C)(C)O)c(Cl)c(-c3ccc(F)cc3)n2)C2CC2)cc2cc(C3CC3)nnc12 [compound 282] | 0.0032 | 13 |  | 
COc1cc(C(=O)NC[C@@](O)(c2cc(C(C)(C)O)cc(-c3ccc(F)cc3)n2)C2CC2)cc2cc(C)nnc12 [compound 305] | 0.642 | 41 |  | 
COc1cc(C(=O)NC[C@](O)(c2cc(C(C)(C)O)c(Cl)c(-c3ccc(F)cc3)n2)C2CC2)cc2cc(C(F)F)cnc12 [compound 226, (-)-N-{2-[5-Chloro-6-(4-Fluorophenyl)-4-(2-Hydroxypropan-2-yl)Pyridin-2-yl]-2-Cyclopropyl-2-Hydroxyethyl}-3-(Difluoromethyl)-8-Methoxyquinoline-6-Carboxamide] | 0.0024 | 14 |  | 
COc1cc(C(=O)NC[C@](O)(c2cc(C(C)(C)O)c(F)c(-c3ccc(F)cc3)n2)C2CC2)cc2cc(C3CC3)nnc12 [compound 271, 3-Cyclopropyl-N-{(-)-2-Cyclopropyl-2-[5-Fluoro-6-(4-Fluorophenyl)-4-(2-Hydroxypropan-2-yl)Pyridin-2-yl]-2-Hydroxyethyl)-8-Methoxycinnoline-6-Carboxamide] | 0.0015 | 11 | 0.0015 | 11
COc1cc(C(=O)NC[C@@](O)(c2cc(C(C)(C)NS(C)(=O)=O)c(Cl)c(-c3ccc(F)cc3)n2)C(F)(F)F)cc2cc(C)nnc12 [compound 233, (+)-N-{2-[5-Chloro-6-(4-Fluorophenyl)-4-{2-[(Methanesulfonyl)Amino]Propan-2-yl}Pyridin-2-yl]-3,3,3-Trifluoro-2-Hydroxypropyl}-8-Methoxy-3-Methylcinnoline-6-Carboxamide] | 0.4 | 43 |  | 
COc1cc(C(=O)NC[C@@](O)(c2cc(C(C)(C)O)cc(-c3ccc(F)cc3)n2)C(C)(C)F)cc2cc(C)nnc12 [compound 307] | 0.04 | 43 |  | 
